Source: US20240368565A1, “COMPLEMENTATION-BASED TAGS AND REPORTERS FOR DUAL-MODALITY LABELING” (Promega Corporation, priority 2023, published 2024)

System: HeLa cells
Test: Flow cytometry fold response, reporter variants co-expressed with EGFP-HaloTag[3-19]-5×Gly/Ser-VS-HiBiT
Format: cell-based
Settings: 100 nM ligand, compared to the less fluorogenic ligand JF646
Experimental: (§1) FIG. 95. […] Approximately 48 hours post-transfection, the cells were labeled with 100 nM JF646 HaloTag® ligand. Following a 1-hour incubation with the ligand, the cells were washed with DPBS media for 30 minutes (2× for 15 minutes each). Subsequently, the cells were lifted, and their fluorescence activity was measured using flow cytometry. […] The fold response of each assay condition was calculated as the ratio of mean fluorescence signal in the second quadrant (double positive) by the mean fluorescence signal in the third (JF646+) quadrant.
as §1, with “FIG. 96.” for “FIG. 95.”, “nM JF635” for “nM JF646”

C[Si]1(C)c2cc(N3CC(F)C3)ccc2C2(OC(=O)c3ccc(C(=O)NCCOCCOCCCCCCCl)cc32)c2ccc(N3CC(F)C3)cc21 [JF635]
Fluorescence fold response: fold responses are enhanced
